Assay results as given in US6673968B1, “Method of producing n-(4,5-bis-methanesulfonyl-2-methyl-benzoyl)-guanidine, the hydrochloride thereof” (Merck Patent Gesellschaft mit beschränkter Haftung, priority 1999, dated 2004).
“And” between values parts separate entries of the source, which are not always exact repeats. Equal values may be shown once.

Experiments:
Assay type in all cases: in vivo
[1] = bioavailability after oral administration (AUCpo/AUCiv), monkeys; conditions: 2 monkeys (individual values); oral vs intravenous, dose-standardised AUCpo/AUCiv; hydrochloride hydrate
Excerpt: (§1) The absorption from the digestive tract after oral administration can be calculated by comparison of the concentrations of the administered active ingredient determined in the blood plasma after oral and intravenous administration (dose-standardised AUCpo/AUCiv) [AUC=area under the curve]. […] Bioavailabilities of the hydrochloride hydrate of from 88% to 99% were found in dogs, and 75% and 96% in 2 monkeys. Since the absorption rate is at least equal to or greater than the bioavailability determined, very good absorption has thus also been found in these animal species.

[2] = absorption from the digestive tract after oral administration (AUCpo/AUCiv), rat; conditions: of the orally administered radioactively labelled substance
Excerpt: as §1

[3] = bioavailability after oral administration (AUCpo/AUCiv), dogs; conditions: dog, plasma, oral vs intravenous, dose-standardised AUCpo/AUCiv, read-out: Bioavailabilities
Excerpt: as §1

SMILES: Cc1cc(S(C)(=O)=O)c(S(C)(=O)=O)cc1C(=O)NC(=N)N.Cl.O [hydrochloride hydrate, N-(4,5-bismethanesulfonyl-2-methylbenzoyl)guanidine, hydrochloride hydrate]
- Bioavailabilities [1]: 75% and 96%
- absorption rate [2]: 98%
- bioavailability [3]: 88 to 99%
